According to publication PMC4206749 (Toxicological Research, 2014):

Experiments:
Assay type in all cases: cell-based
[1] = system: CHL cells (Chinese hamster lung fibroblast cell line); test: In vitro chromosomal aberration assay; conditions: for Total frequency (+) Gap / Total frequency (−) Gap / Gap / Numerical aberrations, PP + ER / Structural aberrations, Chromatid type, ctb / Structural aberrations, Chromatid type, cte / Structural aberrations, Chromosome type, csb / Structural aberrations, Chromosome type, cse / Structural aberrations, Others / Growth index: S9 (−); for Gap / Numerical aberrations, PP + ER / Structural aberrations, Chromatid type, ctb / Structural aberrations, Chromatid type, cte / Structural aberrations, Chromosome type, csb / Structural aberrations, Chromosome type, cse / Structural aberrations, Others: 200 cells
[2] = system: Salmonella typhimurium strain TA1537; test: Bacterial reverse mutation assay
[3] = system: L5178Y Tk^+/− mouse lymphoma cells; test: Cytotoxicity assay

## Oc1ccc(-c2ccc3cc(O)ccc3c2)c(O)c1 [HS-1793, 4-(6-hydroxy-2-naphthyl)-1,3-benzenediol]
[1]; 6~18 hr, 12.5 μg/ml
  Total frequency (+) Gap: 2%
  Total frequency (−) Gap: 1%
  Gap: 2
  Numerical aberrations, PP + ER: 0
  Structural aberrations, Chromatid type, ctb: 1
  Structural aberrations, Chromatid type, cte: 1
  Structural aberrations, Chromosome type, csb: 0
  Structural aberrations, Chromosome type, cse: 0
  Structural aberrations, Others: 0
[1]; 6~18 hr, 25 μg/ml
  Growth index: 84%
  Total frequency (+) Gap: 2%
  Total frequency (−) Gap: 1%
  Gap: 2
  Numerical aberrations, PP + ER: 0
  Structural aberrations, Chromatid type, ctb: 0
  Structural aberrations, Chromatid type, cte: 1
  Structural aberrations, Chromosome type, csb: 1
  Structural aberrations, Chromosome type, cse: 0
  Structural aberrations, Others: 0
[1]; 6~18 hr, 50 μg/ml
  Growth index: 72%
  Total frequency (+) Gap: 1.5%
  Total frequency (−) Gap: 1%
  Gap: 1
  Numerical aberrations, PP + ER: 0
  Structural aberrations, Chromatid type, ctb: 1
  Structural aberrations, Chromatid type, cte: 1
  Structural aberrations, Chromosome type, csb: 0
  Structural aberrations, Chromosome type, cse: 0
  Structural aberrations, Others: 0
[1]; 6~18 hr, 100 μg/ml
  Growth index: 65%
  Total frequency (−) Gap: 0.5%
  Gap: 2
  Structural aberrations, Chromatid type, ctb: 0
  Structural aberrations, Chromosome type, csb: 0
  Structural aberrations, Chromosome type, cse: 0
  Structural aberrations, Others: 0
[1]; 24~0 hr continuous, 6.25 μg/ml
  Growth index: 93%
[1]; 24~0 hr continuous, 12.5 μg/ml
  Growth index: 85%
[1]; 24~0 hr continuous, 25 μg/ml
  Growth index: 79%
  Gap: 1
  Numerical aberrations, PP + ER: 1
  Structural aberrations, Chromatid type, ctb: 0
  Structural aberrations, Chromatid type, cte: 1
  Structural aberrations, Chromosome type, csb: 0
  Structural aberrations, Chromosome type, cse: 0
  Structural aberrations, Others: 0
[1]; 24~0 hr continuous, 50 μg/ml
  Growth index: 72%
  Total frequency (+) Gap: 2%
  Total frequency (−) Gap: 1.5%
  Structural aberrations, Chromatid type, ctb: 2
  Structural aberrations, Chromatid type, cte: 1
  Structural aberrations, Chromosome type, csb: 0
  Structural aberrations, Chromosome type, cse: 0
  Structural aberrations, Others: 0
[1]; 24~0 hr continuous, 100 μg/ml
  Growth index: 58%
[1]; continuous treatment for 24 hr, 6.25, 12.5, 25, 50 and 100 μg/ml, absence of the S9 mix
  Incidence of structural or numerical chromosomal aberrations: did not induce a significant increase
[1]; short term treatment for 6 hr, 6.25, 12.5, 25, 50 and 100 μg/ml, presence or absence of the S9 mix
  Incidence of structural or numerical chromosomal aberrations: did not induce a significant increase
[2]; TA1537, with S9 activation, 78.1 μg/plate
  Number of reverse mutants/plate (Mean ± SD): 16 ± 2 reverse mutants/plate
[2]; TA1537, with S9 activation, 156.3 μg/plate
  Number of reverse mutants/plate (Mean ± SD): 14 ± 2 reverse mutants/plate
[2]; TA1537, with S9 activation, 312.5 μg/plate
  Number of reverse mutants/plate (Mean ± SD): 15 ± 5 reverse mutants/plate
[2]; TA1537, with S9 activation, 625 μg/plate
  Number of reverse mutants/plate (Mean ± SD): 14 ± 2 reverse mutants/plate
[2]; TA1537, with S9 activation, 1,250 μg/plate
  Number of reverse mutants/plate (Mean ± SD): 14 ± 1 reverse mutants/plate
[2]; TA1537, with S9 activation, 2,500 μg/plate
  Number of reverse mutants/plate (Mean ± SD): 16 ± 3 reverse mutants/plate
[2]; TA1537, with S9 activation, 5,000 μg/plate
  Number of reverse mutants/plate (Mean ± SD): 15 ± 2 reverse mutants/plate
[2]; TA1537, without S9 activation, 78.1 μg/plate
  Number of reverse mutants/plate (Mean ± SD): 14 ± 2 reverse mutants/plate
[2]; TA1537, without S9 activation, 156.3 μg/plate
  Number of reverse mutants/plate (Mean ± SD): 17 ± 6 reverse mutants/plate
[2]; TA1537, without S9 activation, 312.5 μg/plate
  Number of reverse mutants/plate (Mean ± SD): 13 ± 4 reverse mutants/plate
[2]; TA1537, without S9 activation, 625 μg/plate
  Number of reverse mutants/plate (Mean ± SD): 14 ± 3 reverse mutants/plate
[2]; TA1537, without S9 activation, 1,250 μg/plate
  Number of reverse mutants/plate (Mean ± SD): 15 ± 6 reverse mutants/plate
[2]; TA1537, without S9 activation, 2,500 μg/plate
  Number of reverse mutants/plate (Mean ± SD): 18 ± 1 reverse mutants/plate
[2]; TA1537, without S9 activation, 5,000 μg/plate
  Number of reverse mutants/plate (Mean ± SD): 13 ± 2 reverse mutants/plate
[3]; 62.5 μg/ml for 4 hr
  Cell viability (MTT): no reduction of viable cell numbers > 70%
[3]; 24 hr treatments
  Cell viability (dose-range study): decreased in dose dependent manner
